From patent publication US20230190924A1, “ANTIGEN OF ALLERGY AND EPITOPE THEREOF” (HOYU CO., LTD., priority 2017, published 2023)

Test system: IgE antibodies from patients
Assay: Epitope mapping (2) overlapping (10-amino-acid peptides) and (3) alanine scanning on peptide arrays
Type: binding, human
Details: for region within the epitope important for binding to IgE antibodies from patients: procedures (B) overlapping and (C) alanine scanning; for binding to IgE antibodies from patients, sequence comprising a region amino-terminally adjacent to the epitope / binding to IgE antibodies from patients, sequence comprising a region carboxy-terminally adjacent to the epitope: overlapping peptides with flanking sequence
Outline: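 Overlapping 10-mer peptides shifted by one residue, and alanine-substituted peptides, spotted on cellulose and probed with patient and non-egg-allergic sera; IgE binding read by anti-human IgE-HRP chemiluminescence. Signal expressed relative to parent sequence and graded in bands from <20% (no binding) to ≥90% (retained binding).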

Substance	region within the epitope important for binding to IgE antibodies from patients	also measured
SEQ ID NO: 486: region in epitope 20 (KAINIKIGS; epitope)	important for binding	–
SEQ ID NO: 627: region in epitope 41 (SGYLKMFG; epitope)	important for binding	–
SEQ ID NO: 327: region in epitope 2 (QMTIKKSQNV; epitope)	important for binding	–
SEQ ID NO: 642: region in epitope 41 (GQELL; epitope)	important for binding	–
SEQ ID NO: 363: sequence comprising a region amino-terminally adjacent to epitope 6 (VVNSPRT; epitope)	–	binding to IgE antibodies from patients, sequence comprising a region amino-terminally adjacent to the epitope: binding to IgE antibodies from patients
SEQ ID NO: 624: sequence comprising a region carboxy-terminally adjacent to epitope 40 (KLEFLLSKK; epitope)	–	binding to IgE antibodies from patients, sequence comprising a region carboxy-terminally adjacent to the epitope: binding to IgE antibodies from patients
SEQ ID NO: 430: region in epitope 14 (PSKKGNTVLA; epitope)	important for binding	–
SEQ ID NO: 333: region in epitope 3 (REDKMKLAL; epitope)	important for binding	–
SEQ ID NO: 528: region in epitope 26 (GLLIS; epitope)	important for binding	–
SEQ ID NO: 587: region in epitope 37 (SGIV; epitope)	important for binding	–
SEQ ID NO: 594: region in epitope 37 (IVTPGAKVAV; epitope)	important for binding	–
SEQ ID NO: 353: sequence comprising a region amino-terminally adjacent to epitope 5 (CNIALKLLSP; epitope)	–	binding to IgE antibodies from patients, sequence comprising a region amino-terminally adjacent to the epitope: binding to IgE antibodies from patients
SEQ ID NO: 517: sequence comprising a region amino-terminally adjacent to epitope 23 (APCRGACKLH; epitope)	–	binding to IgE antibodies from patients, sequence comprising a region amino-terminally adjacent to the epitope: binding to IgE antibodies from patients
SEQ ID NO: 343: region in epitope 4 (LKKIAWKDP; epitope)	important for binding	–
SEQ ID NO: 401: sequence comprising a region carboxy-terminally adjacent to epitope 8 (LPTETPLVS; epitope)	–	binding to IgE antibodies from patients, sequence comprising a region carboxy-terminally adjacent to the epitope: binding to IgE antibodies from patients
SEQ ID NO: 498: sequence comprising a region amino-terminally adjacent to epitope 21 (ALAAPGHGID; epitope)	–	binding to IgE antibodies from patients, sequence comprising a region amino-terminally adjacent to the epitope: binding to IgE antibodies from patients
SEQ ID NO: 622: sequence comprising a region amino-terminally adjacent to epitope 40 (GRYLHLAAV; epitope)	–	binding to IgE antibodies from patients, sequence comprising a region amino-terminally adjacent to the epitope: binding to IgE antibodies from patients
SEQ ID NO: 561: region in epitope 34 (DEPLN; epitope)	important for binding	–
SEQ ID NO: 604: sequence comprising a region amino-terminally adjacent to epitope 38 (LVNYSPTK; epitope)	–	binding to IgE antibodies from patients, sequence comprising a region amino-terminally adjacent to the epitope: binding to IgE antibodies from patients

Substance	region within the epitope important for binding to IgE antibodies from patients	also measured
SEQ ID NO: 369: region in epitope 6 (TMFPSAIISK; epitope)	important for binding	–
SEQ ID NO: 483: region in epitope 20 (ATNLKAINIK; epitope)	important for binding	–
SEQ ID NO: 585: region in epitope 36 (GKGFE; epitope)	important for binding	–
SEQ ID NO: 509: region in epitope 21 (DKLYFDGKT; epitope)	important for binding	–
SEQ ID NO: 664: region in epitope 46 (MSFDSDS; epitope)	important for binding	–
SEQ ID NO: 440: region in epitope 15 (SSNSKSS; epitope)	important for binding	–
SEQ ID NO: 409: sequence comprising a region amino-terminally adjacent to epitope 10 (LQQVMKTVVE; epitope)	–	binding to IgE antibodies from patients, sequence comprising a region amino-terminally adjacent to the epitope: binding to IgE antibodies from patients
SEQ ID NO: 462: sequence comprising a region amino-terminally adjacent to epitope 19 (NKIKTFNE; epitope)	–	binding to IgE antibodies from patients, sequence comprising a region amino-terminally adjacent to the epitope: binding to IgE antibodies from patients
SEQ ID NO: 573: region in epitope 34 (KDEP; epitope)	important for binding	–
SEQ ID NO: 608: region in epitope 38 (PTKGYLQMSS; epitope)	important for binding	–
SEQ ID NO: 584: sequence comprising a region carboxy-terminally adjacent to epitope 36 (EPTLEALFG; epitope)	–	binding to IgE antibodies from patients, sequence comprising a region carboxy-terminally adjacent to the epitope: binding to IgE antibodies from patients
SEQ ID NO: 375: sequence comprising a region carboxy-terminally adjacent to epitope 7 (SAGSVADLVE; epitope)	–	binding to IgE antibodies from patients, sequence comprising a region carboxy-terminally adjacent to the epitope: binding to IgE antibodies from patients
SEQ ID NO: 507: region in epitope 21 (PGHGIDKLYF; epitope)	important for binding	–
SEQ ID NO: 533: region in epitope 27 (ICGKYDAE; epitope)	important for binding	–
SEQ ID NO: 465: sequence comprising a region carboxy-terminally adjacent to epitope 19 (VKFNYSMPAN; epitope)	–	binding to IgE antibodies from patients, sequence comprising a region carboxy-terminally adjacent to the epitope: binding to IgE antibodies from patients
SEQ ID NO: 397: region in epitope 8 (KALQGWKELP; epitope)	important for binding	–
SEQ ID NO: 347: region in epitope 4 (LKKIA; epitope)	important for binding	–
SEQ ID NO: 491: region in epitope 21 (AAPGHG; epitope)	important for binding	–
SEQ ID NO: 522: region in epitope 23 (RSFVKLE; epitope)	important for binding	–
